Four compounds from ChEMBL document CHEMBL1156648, “Tetrahdroxysqualene from Rhus taitensis shows antimycobacterial activity against Mycobacterium tuberculosis” (J Nat Prod, 2008) can be followed below.

Each structure is given as a SMILES string. Values after ≈ are worked out from the molar mass of the structure shown. Active and inactive are the calls of the source.

Test [1] has as its system Mycobacterium tuberculosis. In words: Antimycobacterial activity against Mycobacterium tuberculosis H37Rv by MTT assay after 4 days by MTT assay. Format: functional. As to conditions: 96 h.
Test [2] deals with Mycobacterium tuberculosis. In words: Antimycobacterial activity against Mycobacterium tuberculosis H37Ra after 4 days by MTT assay. Format: functional. The conditions noted are these: 96 h. Background: Formazan colour is commonly taken as a measure of viable cells.
Test [3] can be described thus: Cytotoxicity against human CEM-TART cells after 72 hrs by MTT assay. Format: cell-based.
In test [4] the test system is Mycobacterium tuberculosis. As to the kind of experiment: Antimycobacterial activity against Mycobacterium tuberculosis H37Rv at 100 ug/ml after 4 days by MTT assay. The conditions noted are these: 96 h, read-out: GI. Format: functional.
Test [5] deals with Mycobacterium tuberculosis. In words: Antimycobacterial activity against Mycobacterium tuberculosis H37Ra at 200 ug/ml after 4 days by MTT assay. Format: functional, organism-based.

In general, MIC refers to the smallest concentration in the dilution series that meets the test's criterion for growth inhibition. A high value points to weaker potency. As a reminder, the EC50 is the concentration needed to bring the measured effect to its halfway point. Low values mean a more potent agent, high ones a less potent agent.

Regarding `CO[C@H]1/C=C/O[C@@]2(C)Oc3c(C)c(O)c4c(O)c(c(/C=N/N5CCN(C)CC5)c(O)c4c3C2=O)NC(=O)/C(C)=C\C=C\[C@H](C)[C@H](O)[C@@H](C)[C@@H](O)[C@@H](C)[C@H](OC(C)=O)[C@@H]1C` [RIFAMPIN], the MIC in test [1] and in test [2] was 0.0025 µg/mL (≈ 0.00304 µM) in each case.

As for `C/C(=C\CC/C(C)=C/CC/C=C(\C)CC/C=C(\C)CCC=C(CO)CO)CCC=C(CO)CO` [TETRAHYDROXYSQUALENE], a half-maximal response in test [3] (EC50) required 27.5 µg/mL (≈ 57.9 µM). This compound returned an MIC in test [2] of 10 µg/mL (≈ 21.1 µM).

Compound `COc1cccc2c1C(=O)c1c(O)c3c(c(O)c1C2=O)C[C@@](O)(C(=O)CO)C[C@@H]3O[C@H]1C[C@H](N)[C@H](O)[C@H](C)O1` [DOXORUBICIN] yielded an EC50 in test [3] of 0.0044 µg/mL (≈ 0.0081 µM).

With `CC(C)=CCC/C(C)=C/CC/C(C)=C/CC/C=C(\C)CC/C=C(\C)CCC=C(C)C` [SQUALENE], the MIC in test [1] is 100 µg/mL (≈ 243 µM). In addition, the inhibition of growth at 100 µg/mL in test [4] turned out to be 99%. Besides, the result in test [5] was inactive.
